Source: publication PMC7913927, “Leishmanicidal Activity of Betulin Derivatives in Leishmania amazonensis; Effect on Plasma and Mitochondrial Membrane Potential, and Macrophage Nitric Oxide and Superoxide Production” (Microorganisms, 2021)

Test system: L. (L.) amazonensis LTB0016 promastigotes
Experiment: Promastigote in vitro susceptibility (Alamar Blue/resazurin), reference strain
Assay type: cell-based, Leishmania amazonensis
Details: LTB0016, 50 µM
Procedure: The fluorometric method of Alamar Blue® (resazurin) was used. Promastigotes grown in biphasic agar-blood medium, at the exponential phase of growth, were seeded in flat-bottom 96-well culture plates, at a cell density of 1 × 10^6 parasites mL^−1 (200,000 parasites/well), in 180 µL of RPMIc without phenol red. Subsequently, either a sole concentration (50 µM), or increasing concentrations of compounds or drugs were applied, according to each treatment group, in volumes of 2 µL. Plates were kept at 26 °C, in a humid chamber, for 72 h. […] Live parasites are metabolically active and capable of reducing non-fluorescent resazurin (blue) to fluorescent resorufin (red). Fluorescence intensity is directly proportional to the number of viable cells. […] At least two independent experiments were performed in duplicate. The effect of trivalent antimonial [SbIII, potassium antimonyl tartrate trihydrate, Sigma-Aldrich, (St. Louis, MO, USA)] was included as positive control of the assay.

For `C=C(C)C1CCC2(C=NO)CCC3(C)C(CCC4C5(C)CCC(=NO)C(C)(C)C5CCC43C)C12` (stereo not shown) [Compound 18], the growth inhibition was “at least 75%”.
